Reference: ChEMBL document CHEMBL1221402, “Bioactivity-guided isolation of 1,2,3,4,6-Penta-O-galloyl-D-glucopyranose from Paeonia lactiflora roots as a PTP1B inhibitor” (J Nat Prod, 2010)
Active and inactive are the calls of the source. No cut-off for these calls is given here.

What was measured:
[1] = biological target: T1, Tyrosine-protein phosphatase non-receptor type 2 (Homo sapiens, UniProt P17706); assay: Inhibition of TCPTP
T1 sequence (P17706 whole entry): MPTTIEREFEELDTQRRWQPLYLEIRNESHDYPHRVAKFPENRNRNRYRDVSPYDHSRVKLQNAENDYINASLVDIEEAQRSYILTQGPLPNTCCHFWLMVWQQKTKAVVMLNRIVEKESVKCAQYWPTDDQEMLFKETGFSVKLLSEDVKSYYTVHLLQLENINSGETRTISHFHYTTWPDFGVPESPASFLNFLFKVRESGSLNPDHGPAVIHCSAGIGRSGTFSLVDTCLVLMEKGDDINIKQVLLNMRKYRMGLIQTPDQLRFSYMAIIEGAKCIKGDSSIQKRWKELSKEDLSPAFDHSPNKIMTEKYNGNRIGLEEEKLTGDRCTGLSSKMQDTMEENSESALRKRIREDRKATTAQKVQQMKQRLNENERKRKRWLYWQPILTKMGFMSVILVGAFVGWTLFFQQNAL

[2] = biological target: T2, Tyrosine-protein phosphatase non-receptor type 11 (Homo sapiens) (UniProt Q06124); assay: Inhibition of SHP-2 at <50 uM
T2 sequence (whole entry): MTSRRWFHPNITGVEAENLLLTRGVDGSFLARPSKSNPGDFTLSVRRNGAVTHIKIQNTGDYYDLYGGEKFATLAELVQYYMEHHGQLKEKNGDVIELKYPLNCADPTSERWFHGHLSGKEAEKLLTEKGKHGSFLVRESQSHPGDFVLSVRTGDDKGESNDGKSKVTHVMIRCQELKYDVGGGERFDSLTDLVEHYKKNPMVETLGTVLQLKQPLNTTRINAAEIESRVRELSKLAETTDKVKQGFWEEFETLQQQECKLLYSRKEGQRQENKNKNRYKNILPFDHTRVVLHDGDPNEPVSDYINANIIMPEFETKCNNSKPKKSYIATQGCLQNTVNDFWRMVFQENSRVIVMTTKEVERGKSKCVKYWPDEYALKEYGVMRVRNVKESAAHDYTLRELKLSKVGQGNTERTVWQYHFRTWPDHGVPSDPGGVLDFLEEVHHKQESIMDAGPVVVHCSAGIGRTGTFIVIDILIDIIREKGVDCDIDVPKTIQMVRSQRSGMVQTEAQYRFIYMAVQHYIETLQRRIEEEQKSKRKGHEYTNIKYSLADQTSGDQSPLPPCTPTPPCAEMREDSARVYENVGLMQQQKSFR

[3] = biological target: Receptor-type tyrosine-protein phosphatase F (Homo sapiens) (UniProt P10586); assay: Inhibition of LAR at <50 uM
Sequence of Receptor-type tyrosine-protein phosphatase F (Homo sapiens) (P10586 whole entry): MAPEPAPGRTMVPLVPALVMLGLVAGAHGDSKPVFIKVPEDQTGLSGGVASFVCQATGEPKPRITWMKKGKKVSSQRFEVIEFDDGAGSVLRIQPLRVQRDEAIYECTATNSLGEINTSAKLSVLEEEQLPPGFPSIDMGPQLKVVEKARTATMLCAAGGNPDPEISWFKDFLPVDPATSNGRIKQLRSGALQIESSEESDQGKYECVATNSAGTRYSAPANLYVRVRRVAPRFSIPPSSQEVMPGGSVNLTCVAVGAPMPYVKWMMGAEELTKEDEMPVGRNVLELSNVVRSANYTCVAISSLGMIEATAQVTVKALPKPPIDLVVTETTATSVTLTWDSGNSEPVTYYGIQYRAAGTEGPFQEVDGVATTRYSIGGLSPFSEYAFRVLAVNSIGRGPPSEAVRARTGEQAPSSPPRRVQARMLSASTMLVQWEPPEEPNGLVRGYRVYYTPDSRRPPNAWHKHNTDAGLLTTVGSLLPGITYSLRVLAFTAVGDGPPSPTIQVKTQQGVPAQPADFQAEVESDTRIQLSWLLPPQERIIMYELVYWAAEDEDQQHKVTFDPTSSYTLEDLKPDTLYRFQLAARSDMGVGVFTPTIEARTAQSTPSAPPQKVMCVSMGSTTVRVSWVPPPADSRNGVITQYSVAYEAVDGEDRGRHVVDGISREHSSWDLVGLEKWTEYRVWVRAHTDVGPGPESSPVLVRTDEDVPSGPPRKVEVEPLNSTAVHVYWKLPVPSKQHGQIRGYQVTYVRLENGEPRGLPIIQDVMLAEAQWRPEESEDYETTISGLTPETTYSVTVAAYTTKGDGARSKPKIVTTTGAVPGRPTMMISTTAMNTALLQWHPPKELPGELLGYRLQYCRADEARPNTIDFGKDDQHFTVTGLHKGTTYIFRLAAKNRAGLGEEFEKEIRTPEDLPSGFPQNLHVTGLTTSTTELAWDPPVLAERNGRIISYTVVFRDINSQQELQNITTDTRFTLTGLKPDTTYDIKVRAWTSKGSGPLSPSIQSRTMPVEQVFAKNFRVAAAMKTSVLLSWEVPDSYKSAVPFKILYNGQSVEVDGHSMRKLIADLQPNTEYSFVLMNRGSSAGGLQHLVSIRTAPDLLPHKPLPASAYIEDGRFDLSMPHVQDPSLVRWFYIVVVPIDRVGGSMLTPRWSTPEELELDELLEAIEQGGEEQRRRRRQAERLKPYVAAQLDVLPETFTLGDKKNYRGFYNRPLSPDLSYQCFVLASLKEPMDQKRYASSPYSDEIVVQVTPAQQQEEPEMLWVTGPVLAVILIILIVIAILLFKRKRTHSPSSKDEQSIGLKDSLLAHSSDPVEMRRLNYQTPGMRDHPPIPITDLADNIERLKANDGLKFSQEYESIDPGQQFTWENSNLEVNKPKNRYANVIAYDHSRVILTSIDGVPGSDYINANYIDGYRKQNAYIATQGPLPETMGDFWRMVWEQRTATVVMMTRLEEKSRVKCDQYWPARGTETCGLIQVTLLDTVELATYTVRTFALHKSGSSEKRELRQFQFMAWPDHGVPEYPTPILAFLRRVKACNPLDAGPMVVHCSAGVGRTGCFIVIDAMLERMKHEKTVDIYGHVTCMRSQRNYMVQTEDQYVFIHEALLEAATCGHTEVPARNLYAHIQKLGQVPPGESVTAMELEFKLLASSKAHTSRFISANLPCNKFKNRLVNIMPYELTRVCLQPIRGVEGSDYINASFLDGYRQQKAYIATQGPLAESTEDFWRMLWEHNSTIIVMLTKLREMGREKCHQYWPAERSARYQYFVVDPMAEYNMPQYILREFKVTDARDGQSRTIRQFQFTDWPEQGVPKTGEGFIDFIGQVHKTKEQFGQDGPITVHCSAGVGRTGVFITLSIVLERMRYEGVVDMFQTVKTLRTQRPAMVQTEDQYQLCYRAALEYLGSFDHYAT

[4] = biological target: Insulin receptor (Homo sapiens) (UniProt P06213); assay: Induction of IR phosphorylation in insulin-stimulated starved human HCC-1.2 cells at 10 uM pretreated 2 hrs before insulin challenge by Western blot analysis
Sequence of Insulin receptor (Homo sapiens) (P06213 28-758 limits assumed): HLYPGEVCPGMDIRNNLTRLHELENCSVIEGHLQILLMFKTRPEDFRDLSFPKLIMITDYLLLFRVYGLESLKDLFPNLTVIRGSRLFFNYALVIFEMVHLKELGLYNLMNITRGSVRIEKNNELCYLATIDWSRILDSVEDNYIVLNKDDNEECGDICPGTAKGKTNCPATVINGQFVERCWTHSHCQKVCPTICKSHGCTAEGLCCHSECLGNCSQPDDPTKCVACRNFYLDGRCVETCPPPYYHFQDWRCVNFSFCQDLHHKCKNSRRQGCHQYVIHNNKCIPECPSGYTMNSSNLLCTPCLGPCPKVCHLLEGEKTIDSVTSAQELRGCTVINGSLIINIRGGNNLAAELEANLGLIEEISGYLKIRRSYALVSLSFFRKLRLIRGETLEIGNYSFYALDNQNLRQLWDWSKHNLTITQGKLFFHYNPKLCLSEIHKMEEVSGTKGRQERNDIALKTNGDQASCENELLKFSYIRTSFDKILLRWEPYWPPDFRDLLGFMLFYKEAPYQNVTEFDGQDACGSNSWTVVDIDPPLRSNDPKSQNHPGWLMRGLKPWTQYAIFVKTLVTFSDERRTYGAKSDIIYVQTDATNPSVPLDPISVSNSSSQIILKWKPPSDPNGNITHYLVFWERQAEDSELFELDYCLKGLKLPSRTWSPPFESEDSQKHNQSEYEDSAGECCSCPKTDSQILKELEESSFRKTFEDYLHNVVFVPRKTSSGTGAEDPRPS
Sequence of Insulin receptor (Homo sapiens) (P06213 763-1382 limits assumed): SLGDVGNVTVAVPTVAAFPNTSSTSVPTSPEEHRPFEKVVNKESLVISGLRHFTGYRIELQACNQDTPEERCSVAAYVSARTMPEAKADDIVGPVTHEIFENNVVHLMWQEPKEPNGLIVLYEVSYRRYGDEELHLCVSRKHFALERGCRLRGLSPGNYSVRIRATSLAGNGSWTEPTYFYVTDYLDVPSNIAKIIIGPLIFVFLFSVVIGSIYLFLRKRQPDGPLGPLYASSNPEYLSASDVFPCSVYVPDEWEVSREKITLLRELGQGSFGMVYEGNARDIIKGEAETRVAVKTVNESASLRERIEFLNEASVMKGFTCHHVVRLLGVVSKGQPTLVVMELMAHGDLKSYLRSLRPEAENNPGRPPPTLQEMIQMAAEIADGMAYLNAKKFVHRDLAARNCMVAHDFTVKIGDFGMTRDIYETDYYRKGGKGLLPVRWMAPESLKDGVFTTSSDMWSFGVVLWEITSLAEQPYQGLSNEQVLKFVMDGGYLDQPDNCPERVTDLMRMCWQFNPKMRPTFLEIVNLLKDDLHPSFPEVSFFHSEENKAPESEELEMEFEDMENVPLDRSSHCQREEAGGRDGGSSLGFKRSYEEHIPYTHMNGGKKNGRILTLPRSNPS

[5] = biological target: T3, Tyrosine-protein phosphatase non-receptor type 1 (Homo sapiens, UniProt P18031); assay: Inhibition of human recombinant PTP1B
T3 sequence (P18031 whole entry): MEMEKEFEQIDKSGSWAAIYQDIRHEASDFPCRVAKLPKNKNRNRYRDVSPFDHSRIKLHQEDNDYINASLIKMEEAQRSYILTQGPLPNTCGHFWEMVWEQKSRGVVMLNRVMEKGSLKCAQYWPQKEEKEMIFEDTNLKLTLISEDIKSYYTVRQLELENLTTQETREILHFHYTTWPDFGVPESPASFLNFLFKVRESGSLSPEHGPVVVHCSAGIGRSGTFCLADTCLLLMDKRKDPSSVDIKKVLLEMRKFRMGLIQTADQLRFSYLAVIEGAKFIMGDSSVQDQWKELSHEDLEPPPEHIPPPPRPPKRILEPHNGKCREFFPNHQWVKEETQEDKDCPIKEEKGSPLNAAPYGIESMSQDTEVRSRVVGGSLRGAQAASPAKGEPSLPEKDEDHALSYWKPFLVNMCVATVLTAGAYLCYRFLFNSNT

O=C(OC[C@H]1O[C@H](OC(=O)c2cc(O)c(O)c(O)c2)[C@H](OC(=O)c2cc(O)c(O)c(O)c2)[C@@H](OC(=O)c2cc(O)c(O)c(O)c2)[C@@H]1OC(=O)c1cc(O)c(O)c(O)c1)c1cc(O)c(O)c(O)c1
IC50 [1]: 70 nM | inhibition [2]: inactive | inhibition [3]: inactive | Activity [4]: Active | IC50 [5]: 4800 nM
